The record followed here is ChEMBL document CHEMBL6153169, “Menominin A and B: Cytotoxic Cyclodepsipeptides from the Freshwater Sponge-Associated Cyanobacterium Nostoc sp. UIC 10607” (J Nat Prod, 2025).

What is called IC50 is the concentration needed to halve the response being measured.

Experiment [1] has as its system MDA-MB-435. The experiment is described as follows: Cytotoxicity against human MDA-MB-435 cells assessed as inhibition of cell growth incubated for 72 hrs by CellTiter 96 Aqueous One Solution based assay. In kind it is functional. Conditions: MDA-MB-435, 72 h.
Experiment [2] relates to OVCAR-3. The experiment is described as follows: Cytotoxicity against human OVCAR-3 cells assessed as inhibition of cell growth incubated for 72 hrs by CellTiter 96 Aqueous One Solution based assay. Conditions: OVCAR-3, 72 h. In kind it is functional.

On to `CC(=O)O[C@H]1C(=O)[C@@]2(C)[C@H]([C@H](OC(=O)c3ccccc3)[C@]3(O)C[C@H](OC(=O)[C@H](O)[C@@H](NC(=O)c4ccccc4)c4ccccc4)C(C)=C1C3(C)C)[C@]1(OC(C)=O)CO[C@@H]1C[C@@H]2O` [PACLITAXEL], for which the IC50 came to 0.52 nM in experiment [1] and 2.2 nM in experiment [2].

On to `CCCCCC[C@@H]1CCCC[C@@H](O)[C@H](C)C(=O)O[C@@H]([C@H](C)CC)C(=O)N[C@@H](Cc2ccccc2)C(=O)O1`, for which the results for the IC50 in experiment [1] and in experiment [2] were 5200 nM and 3100 nM, respectively.

As to `CCCCCC[C@@H]1CCCC[C@@H](O)[C@H](C)C(=O)O[C@@H](C(C)C)C(=O)N[C@@H](Cc2ccccc2)C(=O)O1`, the values for the IC50 in experiment [1] and in experiment [2] were 2900 nM and 2400 nM, respectively.
